# Laboratory results as given in EP4745135A1 (Gluetacs Therapeutics (Shanghai) Co., Ltd., priority 2023, dated 2025).
# Tests used:
# CK1α = target: T1, CK1α (Homo sapiens, UniProt P48729+Q96SW2); test: Western blot, degradation of substrate protein in hPBMCs; type: cell-based
# T1 construct: effects of the compounds of the present disclosure on the expression of target proteins in cells; endogenous in cells; host or cells: human PBMCs (Milecell Biotechnologies)
# Protocol: (§1) Conventional Western blot assay was performed to evaluate the effects of the compounds of the present disclosure on the expression of target proteins in cells. • (1) Cell Seeding and Protein Harvesting: Human peripheral blood mononuclear cells (hPBMCs) at a density of 1×10^6 cells/mL were thawed according to the PBMC Recovery Protocol (Milecell Biotechnologies Inc, Shanghai). […] After 24 hours of compounds treatment, cells were harvested and lysed in RIPA protein lysate containing protease inhibitors on ice for 30 min, followed by centrifugation. The supernatant was aspirated as the extracted total cell protein. The protein concentration of the supernatant was determined using the conventional BCA (Bicinchoninic Acid) assay. • (2) To the collected supernatant, 5X SDS sample loading buffer was added, followed by denaturation at 95°C for 5 minutes. The denatured samples were then separated by SDS-PAGE electrophoresis on a polyacrylamide gel, transferred onto a nitrocellulose membrane (0.45 µm NC membrane), blocked with blocking buffer at room temperature for 1 hour, and subjected to antibody incubation and development procedures according to the antibody manufacturer's instructions (Cell Signaling Technology Company).
# (§2) Half-Maximal Degradation Concentration value (the drug concentration required for degrading proteins by 50%, abbreviated as DC50) reads method: comparing the grayscale values of Western blot bands from drug-treated samples with those from blank DMSO-treated controls, and identifying the drug concentration range at which the grayscale value is half that of the DMSO-treated control bands.
# (§3) DC50 values can be calculated using ImageJ software to measure grayscale values of Western blot bands from drug-treated samples. The concentration-response curve is fitted to estimate the drug concentration corresponding to half the grayscale value.
# (§4) Target protein remaining (%) refers to the percentage of target protein remaining in cells after treatment with protein degrader compounds.
# (§5) Calculation method for target protein remaining (%): Use ImageJ software to measure grayscale values of Western blot bands from drug (protein degrader)-treated samples. The grayscale value of drug-treated bands is divided by that of internal control protein bands, and the resulting quotient is normalized to obtain the relative percentage of remaining target protein after protein degrader treatment.
# (§6) Target protein degradation rate (%) = 1−target protein remaining (%). [formula]
# IKZF1 = target: T2, IKZF1 (Homo sapiens, UniProt Q13422+Q96SW2); test: as above; type: cell-based
# T2 construct: effects of the compounds of the present disclosure on the expression of target proteins in cells; endogenous in cells; host or cells: human PBMCs (Milecell Biotechnologies)
# T2 sequence (Q13422 whole entry): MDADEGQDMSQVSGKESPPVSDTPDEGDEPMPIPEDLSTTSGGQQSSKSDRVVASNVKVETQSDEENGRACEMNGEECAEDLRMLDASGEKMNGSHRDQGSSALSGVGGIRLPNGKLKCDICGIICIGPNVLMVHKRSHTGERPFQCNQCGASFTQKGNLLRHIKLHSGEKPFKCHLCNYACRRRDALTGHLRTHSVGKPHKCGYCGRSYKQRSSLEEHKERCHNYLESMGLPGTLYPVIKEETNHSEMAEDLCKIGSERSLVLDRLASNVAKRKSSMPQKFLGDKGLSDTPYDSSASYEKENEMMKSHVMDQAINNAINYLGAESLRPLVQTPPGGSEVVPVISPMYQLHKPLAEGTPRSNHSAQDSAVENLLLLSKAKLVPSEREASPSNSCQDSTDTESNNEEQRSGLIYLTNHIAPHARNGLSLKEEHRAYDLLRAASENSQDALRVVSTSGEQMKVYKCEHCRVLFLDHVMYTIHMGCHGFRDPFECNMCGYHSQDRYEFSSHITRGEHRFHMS
# T2 sequence (Q96SW2 whole entry): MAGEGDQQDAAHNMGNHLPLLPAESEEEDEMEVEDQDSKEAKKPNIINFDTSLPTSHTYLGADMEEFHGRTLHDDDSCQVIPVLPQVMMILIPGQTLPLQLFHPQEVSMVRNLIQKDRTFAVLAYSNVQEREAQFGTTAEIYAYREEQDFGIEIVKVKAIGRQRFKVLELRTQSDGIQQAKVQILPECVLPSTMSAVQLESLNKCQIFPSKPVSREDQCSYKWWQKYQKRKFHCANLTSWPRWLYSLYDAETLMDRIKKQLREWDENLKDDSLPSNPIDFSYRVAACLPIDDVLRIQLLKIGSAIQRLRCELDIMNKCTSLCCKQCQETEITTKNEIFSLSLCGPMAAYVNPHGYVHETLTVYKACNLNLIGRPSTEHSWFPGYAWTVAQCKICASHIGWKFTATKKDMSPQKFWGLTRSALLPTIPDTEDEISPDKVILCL
# T2 sequence (Q16531 whole entry partner): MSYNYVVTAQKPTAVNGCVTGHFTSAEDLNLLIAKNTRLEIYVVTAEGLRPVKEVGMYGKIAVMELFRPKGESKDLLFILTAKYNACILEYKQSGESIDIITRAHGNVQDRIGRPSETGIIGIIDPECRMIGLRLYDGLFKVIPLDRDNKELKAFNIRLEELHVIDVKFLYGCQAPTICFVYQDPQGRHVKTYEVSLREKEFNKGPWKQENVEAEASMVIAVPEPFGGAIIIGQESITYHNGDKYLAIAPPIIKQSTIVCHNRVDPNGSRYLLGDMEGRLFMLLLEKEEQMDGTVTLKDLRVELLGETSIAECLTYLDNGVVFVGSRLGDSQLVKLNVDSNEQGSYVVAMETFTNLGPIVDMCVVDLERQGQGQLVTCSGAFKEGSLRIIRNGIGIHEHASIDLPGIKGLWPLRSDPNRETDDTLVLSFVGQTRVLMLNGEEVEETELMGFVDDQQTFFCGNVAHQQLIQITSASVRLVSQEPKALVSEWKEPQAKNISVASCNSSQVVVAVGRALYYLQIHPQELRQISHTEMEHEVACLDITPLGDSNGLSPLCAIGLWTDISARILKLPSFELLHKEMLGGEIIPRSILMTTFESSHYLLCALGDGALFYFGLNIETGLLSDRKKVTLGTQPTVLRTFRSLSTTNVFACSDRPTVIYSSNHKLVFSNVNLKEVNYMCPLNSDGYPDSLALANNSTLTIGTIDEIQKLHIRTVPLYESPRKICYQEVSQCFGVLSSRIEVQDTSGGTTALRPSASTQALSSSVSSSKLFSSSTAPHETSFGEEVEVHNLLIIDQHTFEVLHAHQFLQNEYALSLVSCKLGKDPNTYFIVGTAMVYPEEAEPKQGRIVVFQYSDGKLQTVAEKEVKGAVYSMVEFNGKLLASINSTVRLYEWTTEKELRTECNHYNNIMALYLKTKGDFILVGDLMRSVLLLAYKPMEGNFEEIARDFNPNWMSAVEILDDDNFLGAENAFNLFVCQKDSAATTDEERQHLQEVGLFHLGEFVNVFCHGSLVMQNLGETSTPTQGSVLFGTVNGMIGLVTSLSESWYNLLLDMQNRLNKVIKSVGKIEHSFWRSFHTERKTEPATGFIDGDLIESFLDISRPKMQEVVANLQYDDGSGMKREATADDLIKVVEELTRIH
# Protocol: as §1, §2, §3, §4, §5, §6
# IKZF2 = target: T3, IKZF2 (Homo sapiens, UniProt Q96SW2+Q9UKS7); test: as above; type: cell-based
# T3 construct: effects of the compounds of the present disclosure on the expression of target proteins in cells; endogenous in cells; host or cells: human PBMCs (Milecell Biotechnologies)
# T3 sequence (Q9UKS7 whole entry): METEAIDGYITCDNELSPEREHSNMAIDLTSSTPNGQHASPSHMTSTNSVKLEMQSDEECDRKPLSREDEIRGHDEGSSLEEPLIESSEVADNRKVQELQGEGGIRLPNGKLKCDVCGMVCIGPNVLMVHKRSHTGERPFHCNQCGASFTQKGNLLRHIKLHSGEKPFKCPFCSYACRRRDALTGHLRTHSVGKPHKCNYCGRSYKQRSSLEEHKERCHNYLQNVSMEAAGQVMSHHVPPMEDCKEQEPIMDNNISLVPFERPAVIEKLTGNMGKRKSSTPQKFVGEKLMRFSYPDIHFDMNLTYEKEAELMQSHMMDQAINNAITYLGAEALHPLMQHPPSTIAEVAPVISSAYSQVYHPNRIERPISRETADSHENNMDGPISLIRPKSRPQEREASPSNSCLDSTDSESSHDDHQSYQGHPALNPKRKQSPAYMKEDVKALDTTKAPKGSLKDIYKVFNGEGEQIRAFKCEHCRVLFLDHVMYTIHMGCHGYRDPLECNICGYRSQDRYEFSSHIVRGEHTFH
# T3 sequence (Q96SW2 whole entry): as the sequence (Q96SW2 whole entry) above
# T3 sequence (Q16531 whole entry partner): as the sequence (Q16531 whole entry partner) above
# Protocol: as §1, §2, §3, §4, §5, §6
# IKZF3 = target: T4, IKZF3 (Homo sapiens, UniProt Q96SW2+Q9UKT9); test: as above; type: cell-based
# T4 construct: effects of the compounds of the present disclosure on the expression of target proteins in cells; endogenous in cells; host or cells: human PBMCs (Milecell Biotechnologies)
# T4 sequence (Q9UKT9 whole entry): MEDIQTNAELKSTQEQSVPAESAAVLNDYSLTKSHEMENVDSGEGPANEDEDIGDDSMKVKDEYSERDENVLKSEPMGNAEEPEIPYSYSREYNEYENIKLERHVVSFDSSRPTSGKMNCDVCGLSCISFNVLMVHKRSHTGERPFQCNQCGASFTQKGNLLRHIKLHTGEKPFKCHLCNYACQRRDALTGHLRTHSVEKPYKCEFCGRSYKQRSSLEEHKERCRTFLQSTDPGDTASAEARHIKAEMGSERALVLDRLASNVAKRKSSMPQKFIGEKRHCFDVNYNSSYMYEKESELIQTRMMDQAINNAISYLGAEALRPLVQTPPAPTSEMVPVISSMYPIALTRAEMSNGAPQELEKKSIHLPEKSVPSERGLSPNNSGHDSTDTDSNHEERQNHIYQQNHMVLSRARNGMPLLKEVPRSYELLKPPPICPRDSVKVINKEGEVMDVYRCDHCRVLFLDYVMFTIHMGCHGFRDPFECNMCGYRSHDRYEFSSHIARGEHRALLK
# T4 sequence (Q96SW2 whole entry): as the sequence (Q96SW2 whole entry) above
# T4 sequence (Q16531 whole entry partner): as the sequence (Q16531 whole entry partner) above
# Protocol: as §1, §2, §3, §4, §5, §6
# WEE1 = target: T5, WEE1 (Homo sapiens, UniProt P30291+Q96SW2); test: as above; type: cell-based
# T5 construct: effects of the compounds of the present disclosure on the expression of target proteins in cells; endogenous in cells; host or cells: human PBMCs (Milecell Biotechnologies)
# T5 sequence (P30291 whole entry): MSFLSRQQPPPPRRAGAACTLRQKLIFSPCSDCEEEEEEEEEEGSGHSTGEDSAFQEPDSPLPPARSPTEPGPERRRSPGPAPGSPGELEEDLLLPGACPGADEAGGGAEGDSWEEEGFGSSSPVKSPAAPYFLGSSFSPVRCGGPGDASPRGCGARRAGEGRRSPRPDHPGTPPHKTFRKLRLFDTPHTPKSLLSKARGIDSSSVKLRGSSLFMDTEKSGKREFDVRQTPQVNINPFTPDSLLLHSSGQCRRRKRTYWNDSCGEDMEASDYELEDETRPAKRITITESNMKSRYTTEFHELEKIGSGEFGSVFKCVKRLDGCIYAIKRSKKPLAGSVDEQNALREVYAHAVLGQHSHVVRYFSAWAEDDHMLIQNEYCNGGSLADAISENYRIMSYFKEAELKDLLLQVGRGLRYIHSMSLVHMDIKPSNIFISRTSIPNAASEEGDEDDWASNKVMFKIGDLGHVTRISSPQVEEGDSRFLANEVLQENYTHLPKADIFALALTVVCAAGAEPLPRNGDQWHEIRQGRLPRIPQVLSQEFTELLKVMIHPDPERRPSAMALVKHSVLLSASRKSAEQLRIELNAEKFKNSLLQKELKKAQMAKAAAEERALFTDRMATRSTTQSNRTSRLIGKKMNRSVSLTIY
# T5 sequence (Q96SW2 whole entry): as the sequence (Q96SW2 whole entry) above
# T5 sequence (Q16531 whole entry partner): as the sequence (Q16531 whole entry partner) above
# Protocol: as §1, §2, §3, §4, §5, §6
# GSPT1 = test: as above; type: cell-based, Human
# Protocol: as §1, §2, §3, §4, §5, §6
# [1] = target: T6, human Cereblon WT GST-tagged protein (Homo sapiens, UniProt Q96SW2); test: CRBN-binding affinity, HTRF (CEREBLON BINDING kit); conditions: CRBN binding, HTRF, 3 hours at room temperature; read-out: HTRF IC50
# T6 construct: purchased CISBIO 64BDCRBNPEH
# T6 sequence (Q96SW2 whole entry): as the sequence (Q96SW2 whole entry) above
# [2] = 24 hours treatment, compounds at 50 nM and 500 nM (concentration behind the class not stated)
# [3] = Western blot, 24 hours of compound treatment, compounds tested at 50 nM and 500 nM (concentration for the table not stated)
# T1 sequence (P48729 whole entry): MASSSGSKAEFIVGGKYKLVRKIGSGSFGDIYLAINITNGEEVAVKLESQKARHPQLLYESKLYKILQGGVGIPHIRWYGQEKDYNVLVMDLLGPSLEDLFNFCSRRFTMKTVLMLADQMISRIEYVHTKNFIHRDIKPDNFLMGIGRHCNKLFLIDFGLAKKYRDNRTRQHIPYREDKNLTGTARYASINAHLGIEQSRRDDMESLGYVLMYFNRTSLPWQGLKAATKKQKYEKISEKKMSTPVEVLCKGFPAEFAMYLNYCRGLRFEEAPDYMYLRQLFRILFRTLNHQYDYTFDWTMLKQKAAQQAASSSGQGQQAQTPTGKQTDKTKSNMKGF
# T1 sequence (Q96SW2 whole entry): as the sequence (Q96SW2 whole entry) above
# T1 sequence (Q16531 whole entry partner): as the sequence (Q16531 whole entry partner) above
IC50 [1] [nM],SMILES,CK1α substrate protein remaining % (CK1α; [2]),IKZF 1 substrate protein remaining % (IKZF1; [2]),IKZF2 substrate protein remaining % (IKZF2; [2]),IKZF3 substrate protein remaining % (IKZF3; [2]),Wee1 substrate protein remaining % (WEE1; [2]),GSPT1 substrate protein remaining % (GSPT1; [2]),CK1α substrate protein remaining % (CK1α; [3]),IKZF 1 substrate protein remaining % (IKZF1; [3]),IKZF2 substrate protein remaining % (IKZF2; [3]),IKZF3 substrate protein remaining % (IKZF3; [3]),Wee1 substrate protein remaining % (WEE1; [3]),GSPT1 substrate protein remaining % (GSPT1; [3])
100 to 500,"O=C1CCC(N2Cc3c(CN4CCC(c5noc6cc(F)ccc56)CC4)cccc3C2=S)C(=O)N1 (centres unmarked) [GT-04997, 3-(4-((4-(6-fluorobenzo[d]isoxazol-3-yl)piperidin-1-yl)methyl)-1-thioxoisoindolin-2-yl)piperidine-2,6-dione]",B (80%< substrate protein remaining %≤ 100%),B (80%< substrate protein remaining %≤ 100%),B (80%< substrate protein remaining %≤ 100%),B (80%< substrate protein remaining %≤ 100%),A (0% ≤ substrate protein remaining % ≤ 80%),B (80%< substrate protein remaining %≤ 100%),,,,,,
100 to 500,"O=C1CCC(N2Cc3ccc(CN4CCC(c5noc6cc(F)ccc56)CC4)cc3C2=S)C(=O)N1 (centres unmarked) [GT-05031, 3-(6-((4-(6-fluorobenzo[d]isoxazol-3-yl)piperidin-1-yl)methyl)-1-thioxoisoindolin-2-yl)piperidine-2,6-dione]",B (80%< substrate protein remaining %≤ 100%),B (80%< substrate protein remaining %≤ 100%),B (80%< substrate protein remaining %≤ 100%),A (0% ≤ substrate protein remaining % ≤ 80%),B (80%< substrate protein remaining %≤ 100%),A (0% ≤ substrate protein remaining % ≤ 80%),,,,,,
100 to 500,"O=C1CCC(N2Cc3ccc(CN4CCN(c5cccc(Cl)c5Cl)CC4)cc3C2=S)C(=O)N1 (centres unmarked) [GT-05033, 3-(6-((4-(2,3-dichlorophenyl)piperazin-1-yl)methyl)-1-thioxoisoindolin-2-yl)piperidine-2,6-dione]",B (80%< substrate protein remaining %≤ 100%),B (80%< substrate protein remaining %≤ 100%),B (80%< substrate protein remaining %≤ 100%),A (0% ≤ substrate protein remaining % ≤ 80%),B (80%< substrate protein remaining %≤ 100%),A (0% ≤ substrate protein remaining % ≤ 80%),,,,,,
100 to 500,"O=C1CCC(N2Cc3ccc(CN4CCN(c5cccc6sccc56)CC4)cc3C2=S)C(=O)N1 (centres unmarked) [GT-05035, 3-(6-((4-(benzo[b]thiophen-4-yl)piperazin-1-yl)methyl)-1-thioxoisoindolin-2-yl)piperidine-2,6-dione]",,,,,,,B (80%< substrate protein remaining %≤ 100%),A (0% ≤ substrate protein remaining % ≤ 80%),A (0% ≤ substrate protein remaining % ≤ 80%),A (0% ≤ substrate protein remaining % ≤ 80%),A (0% ≤ substrate protein remaining % ≤ 80%),A (0% ≤ substrate protein remaining % ≤ 80%)
,"O=C1CCC(N2Cc3c(CN4CCC(c5nccc(Cl)c5Cl)CC4)cccc3C2=S)C(=O)N1 (centres unmarked) [GT-08457, 3-(4-((4-(3,4-dichloropyridin-2-yl)piperidin-1-yl)methyl)-1-thioxoisoindolin-2-yl)piperidine-2,6-dione]",,,,,,,B (80%< substrate protein remaining %≤ 100%),B (80%< substrate protein remaining %≤ 100%),B (80%< substrate protein remaining %≤ 100%),B (80%< substrate protein remaining %≤ 100%),A (0% ≤ substrate protein remaining % ≤ 80%),B (80%< substrate protein remaining %≤ 100%)
,"Cc1ccccc1N1CCN(Cc2cccc3c2CN(C2CCC(=O)NC2=O)C3=S)CC1 (centres unmarked) [GT-08497, 3-(1-thioxo-4-((4-(o-tolyl)piperazin-1-yl)methyl)isoindolin-2-yl)piperidine-2,6-dione]",,,,,,,B (80%< substrate protein remaining %≤ 100%),A (0% ≤ substrate protein remaining % ≤ 80%),A (0% ≤ substrate protein remaining % ≤ 80%),B (80%< substrate protein remaining %≤ 100%),A (0% ≤ substrate protein remaining % ≤ 80%),A (0% ≤ substrate protein remaining % ≤ 80%)
,"O=C1CCC(N2Cc3c(CN4CCN(c5ccc(C(F)(F)F)cn5)CC4)cccc3C2=S)C(=O)N1 (centres unmarked) [GT-08702, 3-(1-thioxo-4-((4-(5-(trifluoromethyl)pyridin-2-yl)piperazin-1-yl)methyl)isoindolin-2-yl)piperidine-2,6-dione]",,,,,,,B (80%< substrate protein remaining %≤ 100%),B (80%< substrate protein remaining %≤ 100%),B (80%< substrate protein remaining %≤ 100%),B (80%< substrate protein remaining %≤ 100%),A (0% ≤ substrate protein remaining % ≤ 80%),B (80%< substrate protein remaining %≤ 100%)
,"O=C1CCC(N2Cc3c(CN4CCN(c5c(Cl)ccnc5Cl)CC4)cccc3C2=S)C(=O)N1 (centres unmarked) [GT-08725, 3-(4-((4-(2,4-dichloropyridin-3-yl)piperazin-1-yl)methyl)-1-thioxoisoindolin-2-yl)piperidine-2,6-dione]",,,,,,,B (80%< substrate protein remaining %≤ 100%),B (80%< substrate protein remaining %≤ 100%),B (80%< substrate protein remaining %≤ 100%),B (80%< substrate protein remaining %≤ 100%),A (0% ≤ substrate protein remaining % ≤ 80%),A (0% ≤ substrate protein remaining % ≤ 80%)
,"CC(C)c1cc2c(N3CCN(Cc4cccc5c4CN(C4CCC(=O)NC4=O)C5=S)CC3)ncnc2s1 (centres unmarked) [GT-08915, 3-(4-((4-(6-isopropylthieno[2,3-d]pyrimidin-4-yl)piperazin-1-yl)methyl)-1-thioxoisoindolin-2-yl)piperidine-2,6-dione]",B (80%< substrate protein remaining %≤ 100%),B (80%< substrate protein remaining %≤ 100%),B (80%< substrate protein remaining %≤ 100%),B (80%< substrate protein remaining %≤ 100%),A (0% ≤ substrate protein remaining % ≤ 80%),B (80%< substrate protein remaining %≤ 100%),,,,,,
,"Cc1csc2ncnc(C3=CCN(Cc4cccc5c4CN(C4CCC(=O)NC4=O)C5=S)CC3)c12 (centres unmarked) [GT-08938, 3-(4-((4-(5-methylthieno[2,3-d]pyrimidin-4-yl)-3,6-dihydropyridin-1(2H)-yl)methyl)-1-thioxoisoindolin-2-yl)piperidine-2,6-dione]",B (80%< substrate protein remaining %≤ 100%),B (80%< substrate protein remaining %≤ 100%),B (80%< substrate protein remaining %≤ 100%),B (80%< substrate protein remaining %≤ 100%),A (0% ≤ substrate protein remaining % ≤ 80%),B (80%< substrate protein remaining %≤ 100%),,,,,,

SMILES,IC50 [1] [nM],CK1α substrate protein remaining % (CK1α; [2]),IKZF 1 substrate protein remaining % (IKZF1; [2]),IKZF2 substrate protein remaining % (IKZF2; [2]),IKZF3 substrate protein remaining % (IKZF3; [2]),Wee1 substrate protein remaining % (WEE1; [2]),GSPT1 substrate protein remaining % (GSPT1; [2]),CK1α substrate protein remaining % (CK1α; [3]),IKZF 1 substrate protein remaining % (IKZF1; [3]),IKZF2 substrate protein remaining % (IKZF2; [3]),IKZF3 substrate protein remaining % (IKZF3; [3]),Wee1 substrate protein remaining % (WEE1; [3]),GSPT1 substrate protein remaining % (GSPT1; [3])
"Cc1ccsc1C1=CCN(Cc2ccc3c(c2)C(=S)N(C2CCC(=O)NC2=O)C3)CC1 (centres unmarked) [GT-05032, 3-(6-((4-(3-methylthiophen-2-yl)-3,6-dihydropyridin-1(2H)-yl)methyl)-1-thioxoisoindolin-2-yl)piperidine-2,6-dione]",100 to 500,B (80%< substrate protein remaining %≤ 100%),B (80%< substrate protein remaining %≤ 100%),B (80%< substrate protein remaining %≤ 100%),A (0% ≤ substrate protein remaining % ≤ 80%),B (80%< substrate protein remaining %≤ 100%),A (0% ≤ substrate protein remaining % ≤ 80%),,,,,,
